Data: patent US20200268703A1, “MEDICINE FOR TREATING ADVANCED OR RECURRENT CANCER PATIENT BEING NON-RESPONSIVE OR NON-TOLERANT TO STANDARD CHEMOTHERAPY AND INCURABLE AND UNRESECTABLE” (HYOGO COLLEGE OF MEDICINE, priority 2017, published 2020)
Where “and” joins values, the source holds several entries; their conditions need not be identical. Equal entries are not always repeated.

Test system: advanced or recurrent gastric cancer which is non-responsive or non-tolerant to standard chemotherapy and incurable and unresectable
Assay: Clinical trial of propagermanium in patients with advanced or recurrent gastric cancer (OS, PFS, lung metastasis imaging)
Type: in vivo, human
Details: for OS / PFS: 30 mg orally per day
Protocol: 30 mg of propagermanium [trade name: SEROCION (registered trademark), produced by SANWA KAGAKU KENKYUSHO CO., LTD.] was administered orally in three divided doses per day after meals to 13 patient cases (P-1 to P-13) who were diagnosed as advanced or recurrent gastric cancer which is non-responsive or non-tolerant to standard chemotherapy [gastric cancer treatment guideline fourth edition (edited by Japan Gastric cancer Association, revised in May 2014)] and incurable and unresectable, and a clinical trial was conducted with overall survival (hereinafter also referred to as “OS”) and progression-free survival (hereinafter also referred to as “PFS”) as evaluation items. This clinical trial was conducted under an approval of Ethics Committee of Hyogo College of Medicine (No. 1911). The ECOG performance status (hereinafter also referred to as “PS”), the OS, and the PFS of 13 patient cases are shown in Table 1.
On the other hand, in Hyogo College of Medicine Hospital from 2009 to 2011, in 62 cases which were diagnosed as advanced gastric cancer which is non-responsive or non-tolerant to standard chemotherapy and incurable and unresectable and for which palliative care (Best Supportive Care; hereinafter “BSC”) to reduce pain was provided, the median of OS from the time when a doctor explained BSC to the patient was 22 days.
13 Patient cases in which the propagermanium was administered and 62 patient cases in which the BSC was provided were divided into two groups of (A) 0 and 1 and (B) 2 and 3 according to PS thereof. In the two groups, medians of the OS in the propagermanium administration examples and BSC examples were compared. As a result, in the patient groups whose PS was (A) 0 and 1, the median of OS in the BSC examples was 23.5 days, whereas the median of OS in the propagermanium administration examples was 163 days. The survival time was extended approximately 7 times compared to the BSC examples. […] Accordingly, it was confirmed that the survival days were extended compared to the BSC examples.
In 13 patient cases in which the propagermanium was administered, mean values of OS were compared according to the presence and absence of the peritoneal metastasis (Table 2 and FIG. 4). As a result, the mean value of OS of 8 patient cases with the peritoneal metastasis was 81.1 days, whereas the mean value of OS of 5 patient cases without the peritoneal metastasis was 164.7 days. […] In addition, 13 patient cases in which the propagermanium was administered were divided into two groups of (C) 0 and 1 and (D) 2 and 3 according to the PS thereof. In the two groups, mean values of the OS were compared according to the presence or absence of the peritoneal metastasis (Table 2 and FIG. 4). As a result, in the patient group whose PS was (C) 0 and 1, the mean value of OS of 4 cases with the peritoneal metastasis was 139 days, whereas the mean value of OS of 3 cases without the peritoneal metastasis was 273 days. […] On the other hand, in the patient group whose PS was (D) 2 and 3, the mean value of OS of 4 cases with the peritoneal metastasis was 37.8 days, whereas the mean value of OS of 2 cases without the peritoneal metastasis was 56.3 days.

Substance: propagermanium
- Median of PFS (13 patient cases): 49 days
- Median of OS (13 patient cases, BSC examples (62 cases) 22 days): 73 days
- Kaplan Meier survival curves of OS versus BSC (FIG. 1) (13 propagermanium cases versus 62 BSC cases): significant life prolongation effect
- Mean value of OS ((C) PS 0 and 1, with peritoneal metastasis, 4 cases): 139 days and 139 (4) days
- Mean value of OS ((C) PS 0 and 1, without peritoneal metastasis, 3 cases): 273 days and 273 (3) days
- Mean value of OS ((D) PS 2 and 3, with peritoneal metastasis, 4 cases): 37.8 days and 37.8 (4) days
- Mean value of OS ((D) PS 2 and 3, without peritoneal metastasis, 2 cases): 56.3 days and 56.3 (2) days
- OS without versus with peritoneal metastasis (all 13 propagermanium patient cases): significant life prolongation effect
- Mean value of OS (all patients, with peritoneal metastasis, 8 cases): 81.1 days and 81.1 (8) days
- Mean value of OS (all patients, without peritoneal metastasis, 5 cases): 164.7 days and 164.7 (5) days
- OS (patient P-1, PS 2): 76 days
- PFS (patient P-1, PS 2): 56 days
- OS (patient P-2, PS 3): 34 days
- PFS (patient P-2, PS 3): 3 days
- OS (patient P-3, PS 0): 344 days
- PFS (patient P-3, PS 0): 336 days
- OS (patient P-4, PS 2): 72 days
- PFS (patient P-4, PS 2): 28 days
- Lesion site of lung (lung metastasis), imaging (FIG. 5) (patient P-5, 357th day after starting administration): scar was formed
- PFS (patient P-5, PS 1): 392 days
- Lesion site of lung (lung metastasis), imaging (FIG. 5) (patient P-5, from the 35th day after starting administration): reduction was observed
- OS (patient P-6, PS 3): 36 days
- PFS (patient P-6, PS 3): 22 days
- OS (patient P-7, PS 0): 83 days
- PFS (patient P-7, PS 0): 49 days
- OS (patient P-8, PS 1): 73 days
- PFS (patient P-8, PS 1): 73 days
- OS (patient P-9, PS 3): 30 days
- PFS (patient P-9, PS 3): 21 days
- OS (patient P-10, PS 2): 11 days
- PFS (patient P-10, PS 2): 7 days
- OS (patient P-11, PS 0): 163 days
- PFS (patient P-11, PS 0): 159 days
- OS (patient P-12, PS 1): 181 days
- PFS (patient P-12, PS 1): 178 days
- OS (patient P-13, PS 1): 61 days
- PFS (patient P-13, PS 1): 36 days
- Kaplan Meier survival curve of OS versus BSC (FIG. 2) (patient group PS (A) 0 and 1): significant life prolongation effect
- Survival time extension compared to BSC examples (patient group PS (A) 0 and 1): approximately 7 times
- Median of OS (patient group PS (A) 0 and 1, BSC examples 23.5 days): 163 days
- Median of OS (patient group PS (B) 2 and 3, BSC examples 22 days): 35 days
- Kaplan Meier survival curve of OS versus BSC (FIG. 3) (patient group PS (B) 2 and 3, significant difference not confirmed): tendency to prolong life
- OS without versus with peritoneal metastasis (patient group PS (C) 0 and 1): significant life prolongation effect
- OS without versus with peritoneal metastasis (patient group PS (D) 2 and 3, significant difference not confirmed): tendency to prolong life
